Laboratory results reported in patent publication US12109218B2, “Compositions of grapiprant and methods for using the same” (ARATANA THERAPEUTICS, INC., priority 2014, dated 2024).
Where two headings read alike, the source gives them in different places.

Columns and labels:
dog EP4 receptors = dog EP4 receptors (Canis lupus familiaris, UniProt A0A8I3MI92); settings: dog EP4 receptor; read-out: Ki, inhibition of [3H]PGE binding; cited from earlier work
[1] = tested on: thermal hyperalgesia induced by intraplantar injection of PGE2; settings: oral administration; cited from earlier work
[2] = tested on: other human prostanoid receptor subtypes; settings: cited from earlier work
[3] = tested on: dogs with naturally occurring osteoarthritis; assay: Dose ranging field study in osteoarthritic dogs, CBPI (Example 6); type: in vivo, dog; settings: for median decrease from baseline PSS score: placebo 28; for median decrease from baseline PIS score: placebo 39.13; for Pain Interference Score (PIS), % change from Day 0 / Pain Severity Score (PSS), % change from Day 0: Formulation A34 tablets
Protocol: In a masked, multi-centered dose ranging field study, dogs with naturally occurring osteoarthritis were treated with grapiprant at 2 mg/kg once daily (SID), 5 mg/kg once daily, 4 mg/kg twice daily (BID), or placebo twice daily to assess the control of pain and inflammation. Dogs were randomly assigned to one of the four treatment groups and treated orally with Formulation A34 tablets of 20, 60, and 100 mg, or placebo tablets (matched to the 4 mg/kg group). (See above at Example 2, Table 4). The control of pain and inflammation was assessed by the owner using the validated Canine Brief Pain Inventory (CBPI) assessment tool, which consists of a pain severity score (PSS), a Pain Interference Score (PIS), and an Owner Impression of dog's quality of life. CBPI scoring, as well as a veterinarian assessment of osteoarthritis, were conducted at Study Day 0 (baseline) and Days 7, 14, 21, and 28.
In total 476 dogs were screened in the study with 108 screen failures, resulting in […] in the per protocol population.

[4] = Pharmacokinetics in cats FPK-13-004 (Example 13); type: in vivo, cat; settings: for AUC(0-t) / Cmax / Tmax / half-life / Cmax/Dose: cats
Protocol: This controlled, non-GLP, laboratory study used three treatment groups: Group 1 was dosed with grapiprant at 2.5 mg/animal; Group 2 was dosed with grapiprant at 5 mg/animal; and Group 3 was dosed with grapiprant at 10 mg/animal. Each dose was administered once on Day 0. Blood samples were collected and processed to serum for pharmacokinetic (PK) analysis. Four hours post-dose, all cats were offered food. Following PK sample collections on Day 1, all animals were released to an open feline colony.
Pharmacokinetic parameters were similar between males and females within each dose group, and therefore mean values were determined by combining data from all animals.

[5] = tested on: meniscal release model of osteoarthritis; assay: Meniscal release model of osteoarthritis in dogs (Example 8); type: in vivo
Protocol: Twenty intact adult female hounds underwent surgical meniscal release of the right stifle and were maintained for at least 8 weeks to allow osteoarthritis to develop. […] Animals were randomized into three groups: negative control (n=6), positive control (n=7) treated with 5 mg/kg firocoxib daily, and grapiprant (n=7) dosed once daily at 30 mg/kg. Dosing was based on baseline bodyweight.
Baseline physical exams, bodyweights, hematology, serum chemistry and urinalysis were obtained on study Day −1 and repeated on Day 13. Orthopedic assessments were conducted on Day −1, Day 2, Day 6, and Day 13, including a kinetics assessment using the GAITRite system to determine left hindlimb: right hindlimb ratios for peak pressure, stride length, step length, and stance time, a 5-point scale lameness evaluation, VAS assessments of right hindlimb function, right stifle pain and effusion, and comfortable range of motion measurements of both stifles using a goniometer.

[6] = 28-day safety and toxicokinetic study in cats (Example 14); type: in vivo, cat; settings: for half-life: both sexes, domestic shorthair, cat, serum, oral, 15 mg/kg
Protocol: The objective of this study was to evaluate the feline safety and toxicokinetic profiles of grapiprant. Twenty-four domestic shorthair cats were randomly assigned to receive placebo or 3, 9, or 15 mg/kg grapiprant in a capsule formulation (3 males and 3 females per group) once daily for 28 days. All cats received their assigned medications as per protocol. Food consumption and behavior were observed daily, bodyweight measured weekly, and clinical pathology analyses on blood run on Days −7, 14, and 25, and urinalysis run on Days −7, and 25. Serial blood samples for toxicokinetic analyses were obtained following the Day 0 and Day 27 doses. Full necropsies and histopathological evaluations were performed following humane euthanasia on Day 28.

[7] = single dose 5 mg (1 mg/kg), mean of all animals
[8] = for a 4-fold increase in dose from 0.5 to 2 mg/kg

dog EP4 receptors, sequence (A0A8I3MI92 1-492): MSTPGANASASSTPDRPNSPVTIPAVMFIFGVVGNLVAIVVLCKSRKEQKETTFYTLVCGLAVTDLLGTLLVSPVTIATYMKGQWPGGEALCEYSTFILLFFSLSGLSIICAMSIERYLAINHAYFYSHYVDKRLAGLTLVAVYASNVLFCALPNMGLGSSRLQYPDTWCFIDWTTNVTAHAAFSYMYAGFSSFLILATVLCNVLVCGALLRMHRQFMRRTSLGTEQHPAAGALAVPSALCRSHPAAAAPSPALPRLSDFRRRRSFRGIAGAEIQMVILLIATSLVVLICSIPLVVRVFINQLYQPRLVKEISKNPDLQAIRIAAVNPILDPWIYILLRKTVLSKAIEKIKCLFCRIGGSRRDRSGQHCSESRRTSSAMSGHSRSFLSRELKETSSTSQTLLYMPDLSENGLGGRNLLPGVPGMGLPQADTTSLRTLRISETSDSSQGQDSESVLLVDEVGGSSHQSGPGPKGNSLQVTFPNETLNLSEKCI

For `CCc1nc2c(C)nc(C)cc2n1-c1ccc(CCNC(=O)NS(=O)(=O)c2ccc(C)cc2)cc1` [grapiprant, N-{2-[4-(2-ethyl-4,6-dimethyl-1H-imidazo[4,5-c]pyridin-1-yl)phenyl]ethyl}-N′-[(4-methylphenyl)sulfonyl]urea], which Ki (dog EP4 receptors) is on record?
The Ki was 24.1 ± 2.7 nM.

What about the “ED50, reduction of thermal hyperalgesia” value [1] of the same compound?
Its value is 12.8 mg/kg.

What about the “selectivity for EP4 over other human prostanoid receptor subtypes” value [2] of the same compound?
The value was “highly selective for the EP4 receptor over other human prostanoid receptor subtypes”.

What about the “control of pain and inflammation of osteoarthritis (PSS and PIS of the CBPI)” value ([3]; 2 mg/kg SID and 5 mg/kg SID doses) of the same compound?
The value was “equally effective in controlling the pain and inflammation of osteoarthritis in dogs”.

What about the “median decrease from baseline PSS score” value ([3]; 2 mg/kg SID) of the same compound?
The value was 48.

What about the “median decrease from baseline PIS score” value ([3]; 2 mg/kg SID) of the same compound?
Its value is 53.25.

What about the “median decrease from baseline PSS score” value ([3]; 4 mg/kg BID) of the same compound?
Its value is 44.44.

And the “median decrease from baseline PIS score” value ([3]; 4 mg/kg BID)?
Its value is 52.27.

And the “median decrease from baseline PSS score” value ([3]; 5 mg/kg SID)?
The value was 48.53.

What about the “median decrease from baseline PIS score” value ([3]; 5 mg/kg SID) of the same compound?
Its value is 55.27.

And the “Pain Interference Score (PIS), % change from Day 0” value ([3]; 2 mg/kg SID, Day 7, median)?
Its value is −27.97%.

And the “Pain Severity Score (PSS), % change from Day 0” value ([3]; 2 mg/kg SID, Day 7, median)?
Its value is −24.26%.

And the “Pain Interference Score (PIS), % change from Day 0” value ([3]; 2 mg/kg SID, Day 14, median)?
The value was −33.33%.

What about the “Pain Severity Score (PSS), % change from Day 0” value ([3]; 2 mg/kg SID, Day 14, median) of the same compound?
Its value is −32.00%.

What about the “Pain Interference Score (PIS), % change from Day 0” value ([3]; 2 mg/kg SID, Day 21, median) of the same compound?
Its value is −47.83%.

And the “Pain Severity Score (PSS), % change from Day 0” value ([3]; 2 mg/kg SID, Day 21, median)?
Its value is −35.00%.

What about the “Pain Interference Score (PIS), % change from Day 0” value ([3]; 2 mg/kg SID, Day 28, median) of the same compound?
The value was −53.25%.

And the “Pain Severity Score (PSS), % change from Day 0” value ([3]; 2 mg/kg SID, Day 28, median)?
The value was −48.00%.

And the “Pain Interference Score (PIS), % change from Day 0” value ([3]; 4 mg/kg BID, Day 7, median)?
Its value is −28.57%.

What about the “Pain Severity Score (PSS), % change from Day 0” value ([3]; 4 mg/kg BID, Day 7, median) of the same compound?
The value was −17.39%.

And the “Pain Interference Score (PIS), % change from Day 0” value ([3]; 4 mg/kg BID, Day 14, median)?
Its value is −35.24%.

And the “Pain Severity Score (PSS), % change from Day 0” value ([3]; 4 mg/kg BID, Day 14, median)?
Its value is −28.29%.

What about the “Pain Interference Score (PIS), % change from Day 0” value ([3]; 4 mg/kg BID, Day 21, median) of the same compound?
Its value is −42.11%.

What about the “Pain Severity Score (PSS), % change from Day 0” value ([3]; 4 mg/kg BID, Day 21, median) of the same compound?
The value was −38.89%.

What about the “Pain Interference Score (PIS), % change from Day 0” value ([3]; 4 mg/kg BID, Day 28, median) of the same compound?
The value was −52.27%.

And the “Pain Severity Score (PSS), % change from Day 0” value ([3]; 4 mg/kg BID, Day 28, median)?
The value was −44.44%.

What about the “Pain Interference Score (PIS), % change from Day 0” value ([3]; 5 mg/kg SID, Day 7, median) of the same compound?
Its value is −26.92%.

And the “Pain Severity Score (PSS), % change from Day 0” value ([3]; 5 mg/kg SID, Day 7, median)?
The value was −22.22%.

And the “Pain Interference Score (PIS), % change from Day 0” value ([3]; 5 mg/kg SID, Day 14, median)?
Its value is −40.00%.

What about the “Pain Severity Score (PSS), % change from Day 0” value ([3]; 5 mg/kg SID, Day 14, median) of the same compound?
Its value is −30.00%.

And the “Pain Interference Score (PIS), % change from Day 0” value ([3]; 5 mg/kg SID, Day 21, median)?
The value was −53.85%.

And the “Pain Severity Score (PSS), % change from Day 0” value ([3]; 5 mg/kg SID, Day 21, median)?
Its value is −44.44%.

And the “Pain Interference Score (PIS), % change from Day 0” value ([3]; 5 mg/kg SID, Day 28, median)?
The value was −55.27%.

And the “Pain Severity Score (PSS), % change from Day 0” value ([3]; 5 mg/kg SID, Day 28, median)?
Its value is −48.53%.

And the “preliminary estimated mean effective canine dose” value ([3]; extrapolated from human PK/PD, protein binding and receptor affinity, confirmed in the field study)?
The value was 2 mg/kg SID.

And the AUC(0-t) ([4]; both sexes, serum, 2.5 mg/animal, single dose 2.5 mg (0.5 mg/kg), mean of all animals)?
The AUC(0-t) was 4190 ng·h/mL.

And the Cmax ([4]; both sexes, serum, 2.5 mg/animal, single dose 2.5 mg (0.5 mg/kg), mean of all animals, read-out: Cmax)?
Its Cmax is 1060 ng/mL.

And the Tmax ([4]; both sexes, serum, 5 mg/animal, single dose 5 mg (1 mg/kg), mean of all animals, read-out: Tmax)?
Its Tmax is 1.13 h.

And the AUC(0-t) ([4]; both sexes, serum, 10 mg/animal, single dose 10 mg (2 mg/kg), mean of all animals)?
Its AUC(0-t) is 21200 ng·h/mL.

And the Cmax ([4]; both sexes, serum, 10 mg/animal, single dose 10 mg (2 mg/kg), mean of all animals, read-out: Cmax)?
The Cmax was 4430 ng/mL.

What about the Tmax ([4]; both sexes, serum, 0.5 to 2 mg/kg, read-out: Mean Tmax values among groups) of the same compound?
Its Tmax is 1.13 to 1.5 h.

What about the half-life ([4]; both sexes, serum, single dose 2.5 mg (0.5 mg/kg), mean of all animals) of the same compound?
Its half-life is 1.58 h.

What about the half-life ([4]; both sexes, serum, single dose 5 mg (1 mg/kg), mean of all animals) of the same compound?
The half-life was 1.13 h.

What about the half-life ([4]; both sexes, serum, single dose 10 mg (2 mg/kg), mean of all animals) of the same compound?
The half-life was 3.44 h.

And the Cmax/Dose ([4]; single dose 2.5 mg (0.5 mg/kg), mean of all animals)?
The Cmax/Dose was 2120 kg·ng/mL/mg.

What about the Cmax [4, 7] of the same compound?
Its Cmax is 2690 ng/mL.

What about the Cmax/Dose [4, 7] of the same compound?
Its Cmax/Dose is 2500 kg·ng/mL/mg.

And the Cmax/Dose ([4]; single dose 10 mg (2 mg/kg), mean of all animals)?
Its Cmax/Dose is 2150 kg·ng/mL/mg.

What about the “increase in AUClast” value [4, 8] of the same compound?
The value was 5.06 fold.

What about the “increase in Cmax” value [4, 8] of the same compound?
Its value is 4.18 fold.

What about the safety ([5]; 30 mg/kg) of the same compound?
The safety was “considered safe for at least a 14-day treatment period”.

What about the lameness scores ([5]; 30 mg/kg once daily) of the same compound?
Its lameness scores is “lower lameness scores in the grapiprant treated group on Day 2 compared to the negative and positive control groups”.

And the pain scores ([5]; 30 mg/kg once daily)?
The pain scores was “statistically significant lower pain scores on Days 2 and 6 compared to baseline”.

What about the “serum total protein, albumin, and globulin” value ([5]; 30 mg/kg once daily) of the same compound?
The value was “decreases in mean total protein, albumin, and globulin”.

And the “amelioration of lameness and pain” value ([5]; 30 mg/kg over 14 days)?
Its value is “effective at day 2 in ameliorating lameness and pain”.

And the half-life ([6]; capsule 3, 9, or 15 mg/kg once daily, Day 27, read-out: Mean half-lives)?
Its half-life is 3 to 14 h.

And the half-life ([6]; capsule 3, 9, or 15 mg/kg once daily, Day 27, read-out: half-life, median value)?
Its half-life is 5 to 6 h.

What about the “tolerability and adverse effects” value ([6]; capsule 3, 9, or 15 mg/kg once daily for 28 days) of the same compound?
Its value is “well tolerated, and no adverse effects were noted at daily doses up to 15 mg/kg for 28 days”.

What about the “time after administration at which maximum serum concentrations were reached” value ([6]; capsule 3, 9, or 15 mg/kg once daily, Day 27) of the same compound?
The value was 1 to 4 h.
